According to PMC10647805 (2023):

How the values were obtained:
[1] = system: h-TELO (DNA, G4) AGGGTTAGGGTTAGGGTTAGGGT; experiment: UV-Vis titration; settings: K+ (100 mM KF, 10 mM potassium phosphate); PBS pH 7.4, ca. 20 °C; 5 μM DNA; 1:1 fit
[2] = system: dsDNA (DNA, hairpin, HEG linker (non-nucleotide loop) between 10 and 11) TATAGCTATATATAGCTATA; experiment: UV-Vis titration; settings: K+ (100 mM KF, 10 mM potassium phosphate); PBS pH 7.4, ca. 20 °C; 5 μM DNA; 1:1 fit; per base
[3] = system: h-TELO (DNA, G4) AGGGTTAGGGTTAGGGTTAGGGT; experiment: variable-temperature CD; settings: K+ (100 mM KF, 10 mM potassium phosphate); PBS pH 7.4; 5 μM DNA, 5 equivalents (25 μM) compound
[4] = system: TBA (DNA, G4) GGTTGGTGTGGTTGG; experiment: variable-temperature CD; settings: K+ (100 mM KF, 10 mM potassium phosphate); PBS pH 7.4; 5 μM DNA, 5 equivalents (25 μM) compound
[5] = system: dsDNA (DNA, hairpin, HEG linker (non-nucleotide loop) between 10 and 11) TATAGCTATATATAGCTATA; experiment: variable-temperature CD; settings: K+ (100 mM KF, 10 mM potassium phosphate); PBS pH 7.4; 5 μM DNA, 5 equivalents (25 μM) compound; per base
[6] = system: c-KIT1 (DNA, G4) GGGAGGGCGCTGGGAGGAGGG; experiment: UV-Vis titration; settings: K+ (100 mM KF, 10 mM potassium phosphate); PBS pH 7.4, ca. 20 °C; 2 μM DNA; 1:1 fit
[7] = system: c-KIT1 (DNA, G4) GGGAGGGCGCTGGGAGGAGGG; experiment: variable-temperature CD; settings: K+ (100 mM KF, 10 mM potassium phosphate); PBS pH 7.4; 2 μM DNA, 5 equivalents (10 μM) compound

SMILES | KD [1] [µM] | KD [2] [µM] | ΔTm [3] [°C] | ΔTm [4] [°C] | ΔTm [5] [°C] | KD [6] [µM] | ΔTm [7] [°C]
CC(C)(C)OC(=O)N[C@H](CN1C(=O)c2ccc3c4c(ccc(c24)C1=O)C(=O)N(C[C@@H](NC(=O)OC(C)(C)C)C(=O)O)C3=O)C(=O)O |  | 30.7 ± 6.9 |  |  |  | 8.0 ± 2.5 | 1.7
O=C(O)[C@@H](O)[C@@H](Cc1ccccc1)N1C(=O)c2ccc3c4c(ccc(c24)C1=O)C(=O)N([C@H](Cc1ccccc1)[C@H](O)C(=O)O)C3=O |  |  |  | 0.8 | −0.1 |  | 
CC(C)(C)OC(=O)N[C@@H](CN1C(=O)c2ccc3c4c(ccc(c24)C1=O)C(=O)N(C[C@H](NC(=O)OC(C)(C)C)C(=O)O)C3=O)C(=O)O |  | 65.2 ± 35.9 | 2.4 | 0.1 |  | 2.6 ± 0.4 | 5.4
O=C(O)[C@@H](O)CN1C(=O)c2ccc3c4c(ccc(c24)C1=O)C(=O)N(C[C@H](O)C(=O)O)C3=O |  |  |  |  |  |  | 3.2

Results, then the compound that gave them:

KD [1] [µM] | KD [2] [µM] | ΔTm [3] [°C] | ΔTm [4] [°C] | ΔTm [5] [°C] | KD [6] [µM] | ΔTm [7] [°C] | SMILES
11.0 ± 3.1 | 23.6 ± 8.4 | 1.7 | −0.1 |  |  |  | CC(C)C[C@@H](CC(=O)O)N1C(=O)c2ccc3c4c(ccc(c24)C1=O)C(=O)N([C@H](CC(=O)O)CC(C)C)C3=O
 |  | 0.2 |  | −2.1 |  |  | C[C@@H](CC(=O)O)N1C(=O)c2ccc3c4c(ccc(c24)C1=O)C(=O)N([C@@H](C)CC(=O)O)C3=O
13.6 ± 3.4 | 50.2 ± 15.4 |  |  |  |  | −0.9 | CC(C)C[C@H](CC(=O)O)N1C(=O)c2ccc3c4c(ccc(c24)C1=O)C(=O)N([C@@H](CC(=O)O)CC(C)C)C3=O
